Data published in ChEMBL document CHEMBL1201862, “PubChem BioAssay data set” (2004).
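Compound exposure: 48 hours, 5 concentrations, 96-well plates. Abbreviation: GI50, concentration required for 50% inhibition of growth.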 Activity calls are given as the source filed them. Cut-off read from the data, not from the text of the source: active = GI50 up to about 1.1 µM and inactive = higher.

Assays:
Assay in all cases: NCI-60 cell line screen, 48 h
CAKI-1 = test system: CAKI-1
OVCAR-4 = test system: OVCAR-4
SK-MEL-5 = test system: SK-MEL-5
T47D = test system: T47D
KM12 = test system: KM12
COLO 205 = test system: COLO 205
786-0 = test system: 786-0
MOLT-4 = test system: MOLT-4
HCT-116 = test system: HCT-116
RPMI-8226 = test system: RPMI-8226
UO-31 = test system: UO-31
OVCAR-5 = test system: OVCAR-5
PC-3 = test system: PC-3
MDA-N = test system: MDA-N
SR = test system: SR
ACHN = test system: ACHN
NCI/ADR-RES = test system: NCI/ADR-RES
HL-60 = test system: HL-60
EKVX = test system: EKVX

Structure (SMILES)	GI50 (CAKI-1)	GI50 (OVCAR-4)	GI50 (SK-MEL-5)	GI50 (T47D)	GI50 (KM12)	GI50 (COLO 205)	GI50 (786-0)	GI50 (MOLT-4)	GI50 (HCT-116)	GI50 (RPMI-8226)	GI50 (UO-31)	GI50 (OVCAR-5)	GI50 (PC-3)	GI50 (MDA-N)	GI50 (SR)	GI50 (ACHN)	GI50 (NCI/ADR-RES)	GI50 (HL-60)	GI50 (EKVX)
N#CC1=C(Nc2ccccc2)SC=C(c2ccccc2)N=C1NCc1ccccc1	> 100 µM (inactive)	> 100 µM (inactive)	54.5 µM (inactive)	> 100 µM (inactive)	> 100 µM (inactive)	65.5 µM (inactive)	> 100 µM (inactive)	72.6 µM (inactive)	> 100 µM (inactive)	18.7 µM (inactive)	71 µM (inactive)	> 100 µM (inactive)	> 100 µM (inactive)	> 100 µM (inactive)	0.984 µM (active)	> 100 µM (inactive)	> 100 µM (inactive)		
O=C1/C(=C/c2ccncc2)C(n2cccc2)c2c(Br)sc(Br)c21 (centres undefined)	3.26 µM (inactive)		13.7 µM (inactive)	3.73 µM (inactive)	11.3 µM (inactive)	10.4 µM (inactive)	3.41 µM (inactive)	1.4 µM (inactive)	2.79 µM (inactive)	2.02 µM (inactive)	2.29 µM (inactive)	14.3 µM (inactive)	4.41 µM (inactive)	2.52 µM (inactive)	2.58 µM (inactive)	4.95 µM (inactive)	14.3 µM (inactive)	1.53 µM (inactive)	3.1 µM (inactive)
Cc1ccc(S(=O)(=O)n2cc(/C=C/C#N)c(-c3cn(S(=O)(=O)c4ccc(C)cc4)cc3-c3cn(S(=O)(=O)c4ccc(C)cc4)cc3/C=C/C#N)c2)cc1	> 100 µM (inactive)	> 100 µM (inactive)	> 100 µM (inactive)	> 100 µM (inactive)	91.6 µM (inactive)	58.7 µM (inactive)	> 100 µM (inactive)		> 100 µM (inactive)	17.4 µM (inactive)	38.4 µM (inactive)	> 100 µM (inactive)	94.2 µM (inactive)	> 100 µM (inactive)	> 100 µM (inactive)	> 100 µM (inactive)	> 100 µM (inactive)		> 100 µM (inactive)
Nc1ccn(C2OC(COP(=O)(O)OCC3OC(n4cc(F)c(=O)[nH]c4=O)CC3O)C(O)C2O)c(=O)n1 (centres undefined)	0.508 µM (active)	> 100 µM (inactive)	0.605 µM (active)	4.47 µM (inactive)	> 100 µM (inactive)	4.68 µM (inactive)	1.33 µM (inactive)	0.0575 µM (active)	0.687 µM (active)		0.339 µM (active)	> 100 µM (inactive)	> 100 µM (inactive)	26.4 µM (inactive)	< 0.01 µM (active)	0.0447 µM (active)	9.23 µM (inactive)	0.237 µM (active)	> 100 µM (inactive)
CCSc1cc(=O)n(C)c(=O)n1C	> 100 µM (inactive)	> 100 µM (inactive)	> 100 µM (inactive)	> 100 µM (inactive)	> 100 µM (inactive)	> 100 µM (inactive)	> 100 µM (inactive)	> 100 µM (inactive)	> 100 µM (inactive)	> 100 µM (inactive)	> 100 µM (inactive)	> 100 µM (inactive)	> 100 µM (inactive)	> 100 µM (inactive)		> 100 µM (inactive)	> 100 µM (inactive)	> 100 µM (inactive)	> 100 µM (inactive)
CC1Oc2c(c(=O)oc3ccccc23)[C@@]1(C)CC1C[C@H](C)C(=O)O1 (some centres undefined)	19.1 µM (inactive)		38.8 µM (inactive)	37.4 µM (inactive)	44.6 µM (inactive)	32.1 µM (inactive)	16.4 µM (inactive)	10.9 µM (inactive)	15.1 µM (inactive)	33.3 µM (inactive)	27.6 µM (inactive)	83.8 µM (inactive)	40.8 µM (inactive)	19.9 µM (inactive)	> 10 µM (inactive)	24.4 µM (inactive)	32.7 µM (inactive)	27.5 µM (inactive)	> 100 µM (inactive)
Brc1ccc(-c2[nH]c3ccccc3c2/C=N\Nc2ccc(-c3nc4ccccc4[nH]3)cc2)cc1	< 0.01 µM (active)		< 0.01 µM (active)	> 56.4 µM (inactive)	< 0.01 µM (active)	< 0.01 µM (active)	< 0.01 µM (active)	< 0.01 µM (active)	< 0.01 µM (active)	< 0.01 µM (active)	< 0.01 µM (active)	< 0.0448 µM (active)	< 0.01 µM (active)	< 0.01 µM (active)	< 0.01 µM (active)	< 0.01 µM (active)	< 0.01 µM (active)	< 0.01 µM (active)	
C=CCN1C(=O)C=C(c2ccccc2)n2ncc3cccc1c32	> 100 µM (inactive)		81.5 µM (inactive)	18.2 µM (inactive)	47.8 µM (inactive)	> 100 µM (inactive)	> 100 µM (inactive)	> 100 µM (inactive)	> 100 µM (inactive)	97.7 µM (inactive)	> 100 µM (inactive)	> 100 µM (inactive)	> 100 µM (inactive)	> 100 µM (inactive)	> 100 µM (inactive)	> 100 µM (inactive)	> 100 µM (inactive)	> 100 µM (inactive)	95.5 µM (inactive)
O=C(NC(=O)c1cc(-c2ccccc2)n[nH]1)c1ccccc1	> 100 µM (inactive)	> 100 µM (inactive)	> 100 µM (inactive)	> 100 µM (inactive)	> 100 µM (inactive)	> 100 µM (inactive)	> 100 µM (inactive)	> 100 µM (inactive)	> 100 µM (inactive)		> 100 µM (inactive)	> 100 µM (inactive)	> 100 µM (inactive)	> 100 µM (inactive)	24 µM (inactive)	> 100 µM (inactive)	> 100 µM (inactive)		> 100 µM (inactive)
O=C(C[N+]1(c2ccccc2)CCOCC1)c1ccccc1	> 100 µM (inactive)	> 100 µM (inactive)	> 100 µM (inactive)	> 100 µM (inactive)	> 100 µM (inactive)		60.5 µM (inactive)	30.4 µM (inactive)	> 100 µM (inactive)		> 100 µM (inactive)	> 100 µM (inactive)	> 100 µM (inactive)	> 100 µM (inactive)	34.8 µM (inactive)	> 100 µM (inactive)	> 100 µM (inactive)		96.6 µM (inactive)
COC(=O)CCNC(=O)OCc1ccccc1	> 100 µM (inactive)		> 100 µM (inactive)	> 100 µM (inactive)	> 100 µM (inactive)	> 100 µM (inactive)	> 100 µM (inactive)	> 100 µM (inactive)	> 100 µM (inactive)	> 100 µM (inactive)	> 100 µM (inactive)	> 100 µM (inactive)	> 100 µM (inactive)	> 100 µM (inactive)	> 100 µM (inactive)	> 100 µM (inactive)	> 100 µM (inactive)	> 100 µM (inactive)	> 100 µM (inactive)
C[C@]12CC[C@@H]3c4ccc(O)cc4CC[C@H]3[C@@H]1C/C(=C\c1ccncc1)[C@@H]2O	12.8 µM (inactive)	14.8 µM (inactive)	4.18 µM (inactive)	3.55 µM (inactive)	5.98 µM (inactive)	5.18 µM (inactive)	14.3 µM (inactive)	3.6 µM (inactive)	10.9 µM (inactive)	3.13 µM (inactive)	21.5 µM (inactive)	28.6 µM (inactive)	10.4 µM (inactive)	3.99 µM (inactive)		11.2 µM (inactive)	5.56 µM (inactive)	8.51 µM (inactive)	18.5 µM (inactive)
CC(C)(C)OC(=O)NCCC1CN(C(=O)c2ccccc2)c2ccccc21 (centres undefined)	36 µM (inactive)	36.9 µM (inactive)	16.4 µM (inactive)	25.2 µM (inactive)	31.5 µM (inactive)	19.7 µM (inactive)	35.3 µM (inactive)	22.1 µM (inactive)	17.8 µM (inactive)	19.7 µM (inactive)	23.7 µM (inactive)	32.7 µM (inactive)	31.8 µM (inactive)	21.6 µM (inactive)	7.82 µM (inactive)	32.7 µM (inactive)	22.1 µM (inactive)		25.6 µM (inactive)
[O-][N+](CCO)(CCO)c1ncnc2[nH]cnc12	> 100 µM (inactive)	> 100 µM (inactive)	> 100 µM (inactive)	> 100 µM (inactive)	> 100 µM (inactive)	> 100 µM (inactive)	> 100 µM (inactive)	> 100 µM (inactive)	> 100 µM (inactive)	> 100 µM (inactive)	> 100 µM (inactive)	> 100 µM (inactive)	> 100 µM (inactive)	> 100 µM (inactive)	> 100 µM (inactive)	> 100 µM (inactive)	> 100 µM (inactive)		> 100 µM (inactive)
N#Cc1c(Cl)c2cc([N+](=O)[O-])ccc2n2c1nc1ccccc12	2.14 µM (inactive)	2.15 µM (inactive)	22.6 µM (inactive)	1.79 µM (inactive)	9.91 µM (inactive)	2.21 µM (inactive)	2.01 µM (inactive)	0.8 µM (active)	3.17 µM (inactive)	3.94 µM (inactive)	2.58 µM (inactive)	4.05 µM (inactive)	5.46 µM (inactive)	7.19 µM (inactive)		4.29 µM (inactive)	5.07 µM (inactive)	0.172 µM (active)	15.8 µM (inactive)
